Source: US20070280924A1, “Pharmaceutical Preparations For And Treatment Of Ocular Surface and Other Disorders” (priority 2004, published 2007)

Key:
[1] = for comparison; cited from earlier work
[2] = tested on: human corneal epithelial cell lines (HCE-T and CEPI-17-CI.4) and human conjunctival epithelial cells
Experimental: Hypromellose, Carbopol or sodium hyaluronate were used to supplement an ocular surface medium at concentrations ranging from 0.0001% to 0.4%. The pH and osmolarity of all of the resultant formulations were controlled and adjusted to be within physiological range. The biophysical properties, i.e. viscosity and surface tension, were determined with a rheometer and an electronic manometer. Two human corneal epithelial cell lines (HCE-T and CEPI-17-CI.4) and two human conjunctival epithelial cells were used to investigate cell proliferation, viability and migration in response to the formulations by means of a luminescence based ATP-assay, a calcein AM/EthD-1 assay and a colony dispersion assay.

| Compound | Surface tension [1] | Toxicity [2] |
| --- | --- | --- |
| O [water] | about 70 mN/m |  |
| hypromellose |  | low toxicity |
